# Measurements taken from PMC8929087, “Structural and Functional Characterization of a Novel Recombinant Antimicrobial Peptide from Hermetia illucens” (Current Issues in Molecular Biology, 2021).
# Where a SMILES comes first, the peptide text is derived from it. Bridges are numbered along the chain shown (N, C = ends).
# Key:
# E. coli BL21 = type: cell-based, Escherichia coli; settings: BL21, 24 h
# Experimental: (§1) The […] antimicrobial activity of the recombinant C-15867 peptide was evaluated against three different bacterial strains: E. coli BL21, Staphylococcus aureus NCTC 12493 and Staphylococcus. epidermidis ATCC 12228. The minimum inhibitory concentration (MIC) was determined as the lowest concentration showing no visible growth after 24 h of incubation at 37 °C.
# (§2) Figure 5 Determination of C-15867 minimum inhibitory concentration (MIC). All bacteria cells were grown in the presence of serial dilution of peptide from 248 µM to 0.56 µM and incubated at 37 °C for 24 h. The error bars on the graphs stand for the standard deviation from the mean of three experiments.
# (§3) The procedure was performed using medium as negative control and cells approximately 5 × 10^5 CFU/mL as positive control to monitor the normal growth of bacteria.
# [1] = test system: Staphylococcus aureus NCTC 12493; type: cell-based; settings: NCTC 12493, 24 h
# Experimental: as §1, §2, §3
# E. coli Bl21 cells = test: Scanning electron microscopy (SEM) of cell morphology; type: cell-based, Escherichia coli; settings: sub-mic concentration (9 µM) of peptide, 3 h incubation at 37 °C, compared with untreated cells
# Experimental: The effect of C-15867 on the morphology of E. coli BL21 cells was also assessed by SEM microscopy analyses. Bacterial cells were treated with a sub-mic concentration (9 µM) of the antimicrobial peptide and SEM analyses were carried out after 3 h of incubation in comparison with untreated cells.
# The cell wall and the cell surface were rough gradually forming pores with subsequent leakage of cytoplasmic material confirming the disrupting effect of the antimicrobial peptide on the bacterial membrane.
# Figure 7 Scanning electron microscopy of E. coli BL2_1 cells following 3 h treatment with a sub-mic concentration (9 µM) of the antimicrobial peptide C-15867 (d–f) in comparison with untreated cells (a–c). The scale bar was 2 µm in panel (a), 500nm in panel (b,c) and 1µm in panel (d–f).
# E. coli BL21 cells were grown in the absence and in the presence of native C15867 peptide at 37 °C for 3 h. Samples from each culture were fixed in 2.5% glutaraldehyde solution for 16 h. Following the incubation, the bacterial cells were washed with 0.1 M PBS (pH 7.2) and dehydrated in a series of ethanol solutions ranging from 30 to 100%, followed by three washes with 100% ethanol. E. coli cells were deposited onto glass substrate first sputter coated with a thin layer of Au-Pd alloy (Denton Vacuum Desk V Magnetron Sputtering) to allow subsequent morphological characterization using a FEI Nova NanoSEM 450.
# [2] = test system: Staphylococcus epidermidis ATCC 12228; test: Minimum inhibitory concentration (MIC) determination; type: cell-based; settings: serial dilution of peptide 248 to 0.5 μM, 24 h at 37 °C
# Experimental: as §1, §2, §3
# [3] = test system: E. coli BL21 membrane permeability; test: Crystal violet assay of membrane permeability; type: cell-based, Escherichia coli; settings: sub-mic concentration (9 µM) of peptide, LB broth, 37 °C, OD590 of supernatant
# Experimental: With C-15867 being a defensin-like AMP, we investigated the effect of the peptide, if any, on E. coli BL21 membrane permeability using the crystal violet assay. Bacterial cells were grown in the presence of a sub-mic concentration (9 µM) of the peptide and the uptake of crystal violet was monitored at different times of incubation.
# Figure 6 Effect of C-15867 on E. coli BL21 membrane permeability. The uptake of crystal violet was calculated in the presence of sub-mic concentration (9 µM) of the peptide.
# The alteration in membrane permeability was detected by crystal violet assay. Bacterial cells were grown in LB broth at 37 °C in the presence of […] peptide for 1 and 3 h. Subsequently, the cells were harvested at 9300× g for 5 min and then the cells were resuspended in 1× PBS containing 10 µg/mL of crystal violet. The cell suspension was incubated for 10 min at 37 °C and then centrifuged at 13,400× g for 15 min and the OD590 of the supernatant was measured at the spectrophotometer. Control samples were prepared similarly without treatment. The OD value of the crystal violet solution, which was originally used in the assay, was taken and it was considered as 100%. The percentage of crystal violet uptake of all the samples was quantified according to the following formula: OD value of the sample/OD value of the crystal violet solution 100×.
smiles,measurement,setting,value
"CC[C@H](C)[C@@H]1NC(=O)[C@@H]2CSSC[C@@H](C(=O)N[C@@H](CCCNC(=N)N)C(=O)O)NC(=O)[C@H](C(C)C)NC(=O)[C@@H]3CSSC[C@H](NC(=O)[C@@H]4CCCN4C(=O)[C@H](C)NC(=O)[C@H](CCCNC(=N)N)NC(=O)CNC(=O)[C@H](Cc4ccccc4)NC(=O)[C@H](Cc4ccccc4)NC(=O)[C@@H]4CCCN4C(=O)[C@H](CCCCN)NC(=O)[C@H](CC(C)C)NC(=O)[C@H](CC(C)C)NC(=O)[C@H](CC(=O)O)NC(=O)[C@@H](NC(=O)[C@@H](NC(=O)[C@@H](N)C(C)C)[C@@H](C)O)CSSC[C@H](NC(=O)[C@H](Cc4ccccc4)NC(=O)CNC(=O)[C@H]([C@@H](C)O)NC(=O)[C@H](CCCNC(=N)N)NC(=O)[C@H](CCCCN)NC(=O)[C@H](CCCCN)NC(=O)[C@H](Cc4ccccc4)NC(=O)[C@H](CCCNC(=N)N)NC(=O)[C@H](CC(C)C)NC1=O)C(=O)N[C@@H](CO)C(=O)N[C@@H](CCCNC(=N)N)C(=O)N[C@@H](CCC(N)=O)C(=O)N[C@@H](CC(N)=O)C(=O)N[C@@H](C(C)C)C(=O)N3)C(=O)N[C@@H](CCSC)C(=O)N[C@@H](CCSC)C(=O)N[C@@H](Cc1c[nH]cn1)C(=O)N2 [C-15867] (H-VTCDLLKPFFGRAPCMMHCILRFKKRTGFCSRQNVCVCR-OH; disulfide 3-30, 15-36, 19-38; N-terminus and C-terminus assumed)",minimum inhibitory concentration (MIC),E. coli BL21,36 µM
same,minimum inhibitory concentration (MIC),[1],36 µM
same,cell morphology by SEM (in words),E. coli Bl21 cells,severe morphological changes
same,antimicrobial effect (in words),[2],strong antimicrobial effect
same,increase in the uptake of crystal violet,[3]; 1 h of treatment,22%
same,increase in the uptake of crystal violet,[3]; 3 h of treatment,34%
